Reference: US7842802B2, “Vinorelbine derivatives” (priority 2003, dated 2010)
Read-outs that look alike come from different tables or passages of the source.

Assays:
SR = experiment: NCI 60-cell line growth inhibition assay, SR; format: cell-based, human; details: Leukemia
Text: (§1) The following data in Table 4 summarize the growth inhibition properties of several compounds of the present invention against 60-human transformed cell lines.

ACHN = experiment: NCI 60-cell line growth inhibition assay, ACHN; format: cell-based, human; details: Renal
Text: as §1

HL-60(TB) = experiment: NCI 60-cell line growth inhibition assay, HL-60(TB); format: cell-based, human; details: Leukemia
Text: as §1

SF-295 = experiment: NCI 60-cell line growth inhibition assay, SF-295; format: cell-based, human; details: CNS
Text: as §1

NCI-H460 = experiment: NCI 60-cell line growth inhibition assay, NCI-H460; format: cell-based, human; details: Non-Small Cell Lung
Text: as §1

KM12 = experiment: NCI 60-cell line growth inhibition assay, KM12; format: cell-based, human; details: Colon
Text: as §1

NCI-H23 = experiment: NCI 60-cell line growth inhibition assay, NCI-H23; format: cell-based, human; details: Non-Small Cell Lung
Text: as §1

CCRF-CEM = experiment: NCI 60-cell line growth inhibition assay, CCRF-CEM; format: cell-based, human; details: Leukemia
Text: as §1

[1] = test system: HeLa S-3 human cervical carcinoma cell line; experiment: HeLa GI50 determination (SRB); format: cell-based; details: HeLa S-3, 2 days of treatment, SRB; read-out: HeLa Cells GI50
How it was run: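 Cells plated at 2×10^4/well; day-0 plate TCA-fixed, test compounds added at 10-fold dilutions for 2 days. SRB staining, absorbance at 490 nm; GI = 100×(T−T0)/(C−T0), GI50 from growth inhibition vs. concentration plots.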

OVCAR-8 = experiment: NCI 60-cell line growth inhibition assay, OVCAR-8; format: cell-based, human; details: Ovarian
Text: as §1

NCI-H226 = experiment: NCI 60-cell line growth inhibition assay, NCI-H226; format: cell-based, human; details: Non-Small Cell Lung
Text: as §1

RXF 393 = experiment: NCI 60-cell line growth inhibition assay, RXF 393; format: cell-based, human; details: Renal
Text: as §1

NCI-H522 = experiment: NCI 60-cell line growth inhibition assay, NCI-H522; format: cell-based, human; details: Non-Small Cell Lung
Text: as §1

UACC-62 = experiment: NCI 60-cell line growth inhibition assay, UACC-62; format: cell-based, human; details: Melanoma
Text: as §1

SW-620 = experiment: NCI 60-cell line growth inhibition assay, SW-620; format: cell-based, human; details: Colon
Text: as §1

HT29 = experiment: NCI 60-cell line growth inhibition assay, HT29; format: cell-based, human; details: Colon
Text: as §1

MDA-MB-435 = experiment: NCI 60-cell line growth inhibition assay, MDA-MB-435; format: cell-based, human; details: Breast
Text: as §1

RPMI-8226 = experiment: NCI 60-cell line growth inhibition assay, RPMI-8226; format: cell-based, human
Text: as §1

HOP-62 = experiment: NCI 60-cell line growth inhibition assay, HOP-62; format: cell-based, human; details: Non-Small Cell Lung
Text: as §1

MDA-MB-231/ATCC = experiment: NCI 60-cell line growth inhibition assay, MDA-MB-231/ATCC; format: cell-based, human; details: Breast
Text: as §1

SNB-75 = experiment: NCI 60-cell line growth inhibition assay, SNB-75; format: cell-based, human; details: CNS
Text: as §1

MALME-3M = experiment: NCI 60-cell line growth inhibition assay, MALME-3M; format: cell-based, human; details: Melanoma
Text: as §1

M14 = experiment: NCI 60-cell line growth inhibition assay, M14; format: cell-based, human; details: Melanoma
Text: as §1

PC-3 = experiment: NCI 60-cell line growth inhibition assay, PC-3; format: cell-based, human; details: Prostate
Text: as §1

K-562 = experiment: NCI 60-cell line growth inhibition assay, K-562; format: cell-based, human; details: Leukemia
Text: as §1

DU-145 = experiment: NCI 60-cell line growth inhibition assay, DU-145; format: cell-based, human; details: Prostate
Text: as §1

HS 578T = experiment: NCI 60-cell line growth inhibition assay, HS 578T; format: cell-based, human; details: Breast
Text: as §1

UACC-257 = experiment: NCI 60-cell line growth inhibition assay, UACC-257; format: cell-based, human; details: Melanoma
Text: as §1

HOP-92 = experiment: NCI 60-cell line growth inhibition assay, HOP-92; format: cell-based, human; details: Non-Small Cell Lung
Text: as §1

LOX IMVI = experiment: NCI 60-cell line growth inhibition assay, LOX IMVI; format: cell-based, human; details: Melanoma
Text: as §1

SK-MEL-2 = experiment: NCI 60-cell line growth inhibition assay, SK-MEL-2; format: cell-based, human; details: Melanoma
Text: as §1

SN12C = experiment: NCI 60-cell line growth inhibition assay, SN12C; format: cell-based, human; details: Renal
Text: as §1

A549/ATCC = experiment: NCI 60-cell line growth inhibition assay, A549/ATCC; format: cell-based, human; details: Non-Small Cell Lung
Text: as §1

HCT-15 = experiment: NCI 60-cell line growth inhibition assay, HCT-15; format: cell-based, human; details: Colon
Text: as §1

IGROV1 = experiment: NCI 60-cell line growth inhibition assay, IGROV1; format: cell-based, human; details: Ovarian
Text: as §1

SF-539 = experiment: NCI 60-cell line growth inhibition assay, SF-539; format: cell-based, human; details: CNS
Text: as §1

NCI/ADR-RES = experiment: NCI 60-cell line growth inhibition assay, NCI/ADR-RES; format: cell-based, human; details: Breast
Text: as §1

UO-31 = experiment: NCI 60-cell line growth inhibition assay, UO-31; format: cell-based, human; details: Renal
Text: as §1

TK-10 = experiment: NCI 60-cell line growth inhibition assay, TK-10; format: cell-based, human; details: Renal
Text: as §1

SF-268 = experiment: NCI 60-cell line growth inhibition assay, SF-268; format: cell-based, human; details: CNS
Text: as §1

MCF7 = experiment: NCI 60-cell line growth inhibition assay, MCF7; format: cell-based, human; details: Breast
Text: as §1

U251 = experiment: NCI 60-cell line growth inhibition assay, U251; format: cell-based, human; details: CNS
Text: as §1

## 11′-bromovinorelbine [Example 1]
SR
  GI50: > 100 µM
ACHN
  GI50: 3.23 µM
HL-60(TB)
  GI50: < 0.01 µM
SF-295
  GI50: < 0.01 µM
NCI-H460
  GI50: < 0.01 µM
KM12
  GI50: < 0.01 µM
NCI-H23
  GI50: < 0.01 µM
CCRF-CEM
  GI50: < 0.01 µM
[1]
  GI50: 0.005 µM
OVCAR-8
  GI50: < 0.01 µM
NCI-H226
  GI50: < 0.01 µM
RXF 393
  GI50: 10.3 µM
NCI-H522
  GI50: < 0.01 µM
UACC-62
  GI50: < 0.01 µM
SW-620
  GI50: < 0.01 µM
HT29
  GI50: < 0.01 µM
MDA-MB-435
  GI50: < 0.01 µM
RPMI-8226
  GI50: < 0.01 µM
RPMI-8226; Leukemia
  GI50: < 0.01 µM
HOP-62
  GI50: < 0.01 µM
MDA-MB-231/ATCC
  GI50: < 0.01 µM
SNB-75
  GI50: 15.1 µM
MALME-3M
  GI50: 0.0536 µM
M14
  GI50: < 0.01 µM
PC-3
  GI50: < 0.01 µM
K-562
  GI50: < 0.01 µM
DU-145
  GI50: < 0.01 µM
HS 578T
  GI50: 0.679 µM
UACC-257
  GI50: 5.73 µM
HOP-92
  GI50: 1.24 µM
LOX IMVI
  GI50: < 0.01 µM
SK-MEL-2
  GI50: < 0.01 µM
SN12C
  GI50: < 0.01 µM
A549/ATCC
  GI50: < 0.01 µM
HCT-15
  GI50: < 0.01 µM
IGROV1
  GI50: < 0.01 µM
SF-539
  GI50: < 0.01 µM
NCI/ADR-RES
  GI50: 0.152 µM
UO-31
  GI50: < 0.01 µM
TK-10
  GI50: < 0.01 µM
SF-268
  GI50: < 0.01 µM
MCF7
  GI50: < 0.01 µM
U251
  GI50: < 0.01 µM
